According to PubChem BioAssay AID1259407 (Chemical Carcinogenesis Research Information System (CCRIS), 2018):
The source made the active and inactive calls. How the calls were made is not given here.

System: CCRIS mutagenicity, Ames/micronucleus/aberration tests
Assay: CCRIS mutagenicity studies
Conditions: Test System: AMES SALMONELLA TYPHIMURIUM
[1] = Strain/Indicator: TA98, Metabolic Activation: HAMSTER, LIVER, S-9, AROCLOR 1254 (10%), Method: PREINCUBATION
[2] = Strain/Indicator: TA98, Metabolic Activation: NONE, Method: PREINCUBATION
[3] = Strain/Indicator: TA98, Metabolic Activation: RAT, LIVER, S-9, AROCLOR 1254 (10%), Method: PREINCUBATION
[4] = Strain/Indicator: TA100, Metabolic Activation: HAMSTER, LIVER, S-9, AROCLOR 1254 (10%), Method: PREINCUBATION
[5] = Strain/Indicator: TA100, Metabolic Activation: NONE, Method: PREINCUBATION
[6] = Strain/Indicator: TA100, Metabolic Activation: RAT, LIVER, S-9, AROCLOR 1254 (10%), Method: PREINCUBATION
[7] = Strain/Indicator: TA1535, Metabolic Activation: HAMSTER, LIVER, S-9, AROCLOR 1254 (10%), Method: PREINCUBATION
[8] = Strain/Indicator: TA1535, Metabolic Activation: NONE, Method: PREINCUBATION
[9] = Strain/Indicator: TA1535, Metabolic Activation: RAT, LIVER, S-9, AROCLOR 1254 (10%), Method: PREINCUBATION
[10] = Strain/Indicator: TA102, Metabolic Activation: NONE, Method: STANDARD PLATE
[11] = Strain/Indicator: TA98, Metabolic Activation: NONE, Method: STANDARD PLATE
[12] = Strain/Indicator: TA98, Metabolic Activation: RAT, LIVER, S-9, AROCLOR 1254, Method: STANDARD PLATE
[13] = Strain/Indicator: TA100, Metabolic Activation: NONE, Method: STANDARD PLATE
[14] = Strain/Indicator: TA100, Metabolic Activation: RAT, LIVER, S-9, AROCLOR 1254, Method: STANDARD PLATE
[15] = Strain/Indicator: TA1537, Metabolic Activation: NONE, Method: STANDARD PLATE
[16] = Strain/Indicator: TA1537, Metabolic Activation: RAT, LIVER, S-9, AROCLOR 1254, Method: STANDARD PLATE
[17] = Strain/Indicator: TA1535, Metabolic Activation: NONE, Method: STANDARD PLATE

With Nc1cc(Cl)c([N+](=O)[O-])cc1O the mutagenic call (Strain/Indicator: TA97, Metabolic Activation: HAMSTER, LIVER, S-9, AROCLOR 1254 (10%), Method: PREINCUBATION) was “active; positive”, the mutagenic call (Strain/Indicator: TA97, Metabolic Activation: NONE, Method: PREINCUBATION) was “active; positive” and the mutagenic call (Strain/Indicator: TA97, Metabolic Activation: RAT, LIVER, S-9, AROCLOR 1254 (10%), Method: PREINCUBATION) was “active; positive”. The mutagenic call [1] was “active; positive”, the mutagenic call [2] was “active; positive” and the mutagenic call [3] was “active; positive”. The mutagenic call [4] was “active; positive”, the mutagenic call [5] was “inactive; negative” and the mutagenic call [6] was “inactive; negative”. The mutagenic call [7] was “inactive; negative”, the mutagenic call [8] was “inactive; negative” and the mutagenic call [9] was “inactive; negative”.
With Cc1ccccc1OP(=O)(Oc1ccccc1)Oc1ccccc1 the mutagenic call [1] was “inactive; negative”, the mutagenic call [2] was “inactive; negative” and the mutagenic call [3] was “inactive; negative”. The mutagenic call [4] was “inactive; negative”, the mutagenic call [5] was “inactive; negative” and the mutagenic call [6] was “inactive; negative”. For the same molecule, the mutagenic call [7] was “inactive; negative”, the mutagenic call [8] was “inactive; negative” and the mutagenic call [9] was “inactive; negative”. For the same molecule, the mutagenic call (Strain/Indicator: TA1537, Metabolic Activation: HAMSTER, LIVER, S-9, AROCLOR 1254 (10%), Method: PREINCUBATION) was “inactive; negative”, the mutagenic call (Strain/Indicator: TA1537, Metabolic Activation: NONE, Method: PREINCUBATION) was “inactive; negative” and the mutagenic call (Strain/Indicator: TA1537, Metabolic Activation: RAT, LIVER, S-9, AROCLOR 1254 (10%), Method: PREINCUBATION) was “inactive; negative”.
For CC[C@@]1(O)C[C@H](O[C@H]2C[C@H](N(C)C)[C@H](O[C@H]3C[C@H](O)[C@H](O)[C@H](C)O3)C(C)O2)c2c(cc3c(c2O)C(=O)c2c(O)ccc(O)c2C3=O)[C@H]1C(=O)OC (stereo partly drawn), the mutagenic call [10] was “active; positive” and the mutagenic call (Strain/Indicator: TA104, Metabolic Activation: NONE, Method: STANDARD PLATE) was “active; positive”.
With O=C1CCC2(O)c3c(ccc(O)c31)-c1ccc(O)c3c1C2C1OC1C3=O (stereo not drawn) the mutagenic call [11] was “active; positive”, the mutagenic call [12] was “active; positive” and the mutagenic call [13] was “active; positive”. The mutagenic call [14] was “active; positive”, the mutagenic call [15] was “active; positive” and the mutagenic call [16] was “active; positive”.
In the case of CCOC(C)C(=O)C(O)O (stereo not drawn), the mutagenic call [10] is reported as “active; positive”, the mutagenic call (Strain/Indicator: TA104, Metabolic Activation: NONE, Method: PREINCUBATION) is reported as “active; positive” and the mutagenic call (Strain/Indicator: TA2638A, Metabolic Activation: NONE, Method: STANDARD PLATE) is reported as “active; positive”.
With ClC1C=Cc2cc3c4c(ccc5cccc(c54)C=3)c2=C1 (stereo not drawn) the mutagenic call [2] was “active; positive”.
Cn1c(N)nc2ccc(C#N)cc21 was tested, and the mutagenic call (Strain/Indicator: TA98, Metabolic Activation: RAT, LIVER, S-9, AROCLOR 1254, Method: PREINCUBATION) was “active; positive”.
For N[C@@H](CS/C(Cl)=C(\Cl)C(Cl)(Cl)Cl)C(=O)O, the mutagenic call [5] was “active; positive” and the mutagenic call (Strain/Indicator: TA100, Metabolic Activation: RAT, LIVER OR KIDNEY, MICROSOMES, Method: PREINCUBATION) was “active; positive”.
CS(=O)(=O)Nc1ccc(Nc2c3ccccc3nc3cc(N=[N+]=[N-])ccc23)cc1 was tested, and the mutagenic call [15] was “active; positive”.
For CC(C)(C)NC(=O)C=Cc1ccc([N+](=O)[O-])o1, the mutagenic call [2] was “active; positive”.
Cc1cc(C)nc(SC(=O)OC(C)(C)C)n1 was tested, and the mutagenic call [11] was “inactive; negative”, the mutagenic call [12] was “inactive; negative” and the mutagenic call [13] was “inactive; negative”. The mutagenic call [14] was “inactive; negative”, the mutagenic call [17] was “inactive; negative” and the mutagenic call (Strain/Indicator: TA1535, Metabolic Activation: RAT, LIVER, S-9, AROCLOR 1254, Method: STANDARD PLATE) was “inactive; negative”. For the same molecule, the mutagenic call [15] was “inactive; negative” and the mutagenic call [16] was “inactive; negative”.
CCCCN(N=O)/C(N)=N/[N+](=O)[O-] was tested, and the mutagenic call [5] was “active; positive”, the mutagenic call (Strain/Indicator: TA100, Metabolic Activation: RAT, LIVER, S-9, KC500 OR PHENOBARBITAL, Method: LIQUID SUSPENSION) was “active; positive” and the mutagenic call [8] was “active; positive”. The mutagenic call [17] was “active; positive”, the mutagenic call (Strain/Indicator: TA1535, Metabolic Activation: RAT, LIVER, S-9, KC500 OR PHENOBARBITAL, Method: LIQUID SUSPENSION) was “active; positive” and the mutagenic call (Strain/Indicator: YG7104, Metabolic Activation: NONE, Method: PREINCUBATION) was “active; positive”. The mutagenic call (Strain/Indicator: YG7108, Metabolic Activation: NONE, Method: PREINCUBATION) was “active; positive”, the mutagenic call (Strain/Indicator: YG7112, Metabolic Activation: NONE, Method: PREINCUBATION) was “active; positive” and the mutagenic call (Strain/Indicator: YG7113, Metabolic Activation: NONE, Method: PREINCUBATION) was “active; positive”.
